Results on one compound are retold here after patent EP1266659A1, “Pyridoxal in combination with serotonin re-uptake inhibitor for the treatment of hot flushes” (Pantarhei Bioscience B.V., priority 2001, dated 2002).

Structures can show the parent of a compound that is named as a salt.

This assay relates to peri-menopausal women experiencing at least 40-50 hot flushes per week.

Method: A clinical study is conducted with 12 peri-menopausal women experiencing at least 40-50 hot flushes per week.
The study is designed as a so called double blind, cross-over study. During the study the medication is orally administered once a day. The visual aspects of the medication used is always the same, i.e. these aspects offer no clues as to the nature of the medication. The volunteers are asked to record the number of hot flushes they experience in a dairy (at least 1 entry per day).
During an initial period of 56 days (days 1-56), all 12 participants receive the same medication, i.e. 20 mg Fluoxetine HCl. Subsequently, the twelve women are randomly divided into two groups, i.e. group A with six women and group B with six women.

With `CNCCC(Oc1ccc(C(F)(F)F)cc1)c1ccccc1` (stereo not drawn) [Fluoxetine HCl], the “number of hot flushes experienced per day” value (all 12 participants, 20 mg Fluoxetine HCl orally once a day, days 1-56) is given as “decreases substantially over time”. The “number of hot flushes” value (group A, 5mg Fluoxetine HCl + placebo orally once a day, days 169-281 (after the combination with vitamin B6)) is “increases again over time”. Also, under “group B, 5mg Fluoxetine HCl + placebo orally once a day, days 57-168 (after 20 mg Fluoxetine HCl)”, the “daily number of hot flushes experienced” value is “increases over time”.
